Measurements as given in patent publication US8367659B2, “Oxazinyl isoflavonoid compounds, medicaments and use” (Marshall Edwards, Inc., priority 2007, dated 2013).

Key:
[1] = Free radical scavenging with DPPH; conditions: DPPH, 20 minutes, absorbance 517 nm; Table 4; read-out: Free radical scavenging ability EC50
Procedure: The antioxidant (free radical trapping) activity of test compounds was assessed using the stable free radical compound 2,2-diphenyl-1-picrylhydrazyl (DPPH). A stock solution of DPPH was prepared at a concentration of […] in ethanol and mixed for 10 minutes prior to use. Test compounds at a concentration of 100 μM were reacted with DPPH for, 20 minutes, alter which time the absorbance at 517 nm was determined. Initial screening of was done at 100 μM. The change in absorbance at 517 nm was compared to a reagent blank (DPPH with ethanol alone). […] The IC50 values were estimated as the concentration of test compound that caused a 0.6 change in absorbance (with 1.2 absorbance units representing total scavenging of the DPPH radical).
The antioxidant (free radical trapping) activity of test compounds was assessed using the stable free radical compound 2,2-diphenyl-1-picrylhydrazyl (DPPH). A stock solution of DPPH was prepared […] in ethanol and mixed for 10 minutes prior to use. Initial screening of test compound at a concentration of 100 μM was reacted with DPPH for 20 minutes, after which time the absorbance at 517 nm was determined. The change in absorbance was compared to a reagent blank (DPPH with ethanol alone). […] The IC50 value was estimated as the concentration of test compound that causes a 0.6 change in absorbance (with 1.2 absorbance units representing total scavenging of the DPPH radical).

[2] = test system: CP70; assay: Anti-cancer activity, CP70 ovarian cancer cells (MTT); assay type: cell-based; conditions: 120 h, 5 days
[3] = test system: neonatal foreskin fibroblasts (NFF); assay: Toxicity to normal cells, neonatal foreskin fibroblasts; assay type: cell-based; conditions: Fibroblast; normal, non-transformed cells; read-out: IC50 μM, NFF Fibroblast
Procedure: (§1) IC50 values were determined for each cell line. Cells were seeded in 96-well plates at an appropriate cell density as determined from growth kinetics analysis and cultured for 5 days in the absence and presence of the test compounds. Cell proliferation was assessed after the addition of 20 μl of 3-4,5 dimethylthiazol-2,5-diphenyl tetrazolium bromide (MTT, 2.5 mg/ml in PBS, Sigma) for 3-4 hrs at 37° C. according to manufacturer's instructions. IC50 values were calculated from semi-log plots of % of control proliferation on the y-axis against log dose on the x-axis.
(§2) The neonatal foreskin fibroblasts (NFF) were a gift from Dr. Peter Parsons (Queensland Institute of Medical Research). Rabbit kidney (RK-13) cells were obtained from Miller Whalley (Macquarie University). Both cell lines were cultured in RPMI supplemented with 10% FCS(CSL, Australia), penicillin (100 U/ml), streptomycin ([…]), L-glutamine (2 mM) and sodium bicarbonate (1.2 g/L), and cultured at 37° C. in a humidified atmosphere of 5% CO2. IC50 values were determined as described above.

[4] = test system: MM200; assay: Anti-cancer activity, MM200 melanoma cells (MTT); assay type: cell-based; conditions: for IC50: 120 h, 5 days, MTT
[5] = test system: Rabbit kidney (RK-13) cells; assay: Toxicity to normal cells, rabbit kidney (RK-13) cells; assay type: cell-based; conditions: Oryctolagus cuniculus, normal, non-transformed cells, read-out: IC50 μM, RK Rabbit Kidney
Procedure: as §1, §2

[6] = test system: HPAC; assay: Anti-cancer activity, HPAC pancreatic cancer cells (MTT); assay type: cell-based; conditions: Homo sapiens, 120 h, 5 days
[7] = test system: NO synthesis in RAW 264.7 murine macrophages; assay: LPS-induced NO synthesis in RAW 264.7 murine macrophages (Griess); assay type: cell-based, mouse; conditions: 10 μM; relative to vehicle alone; FIG. 6
Procedure: The mouse macrophage cell line RAW 264.7 was cultured in DMEM supplemented with foetal calf serum (FCS), […] glutamine and 50 U/ml penicillin/streptomycin. Cells were treated with either test compound (in 0.025% DMSO) or vehicle alone, and added one hour before 50 ng/ml LPS. After incubation for 24 h, culture media was collected for PGE2 or TXB2 measurement by ELISA (Cayman Chemical), and TNFα measurement using an ELISA (Becton Dickinson). Nitrite concentration is a quantitative indicator of NO production and was determined by the Griess Reaction. Briefly, 100 μL of Griess reagent was added to 50 μL of each supernatant in duplicate. The absorbance at 550 nm was measured (Molecular Devices, SpectraMax 250 microplate spectrophotometer, CA, USA), and nitrite concentrations were determined against a standard curve of sodium nitrite. The percentage nitrite inhibition was calculated as: [100−(nitrite concentration of sample/nitrite of vehicle control LPS cells)×100]. Results Test compounds were examined a concentration of 10 μM. […] Consequently, to assess the effect of test compounds on various analytes, cell viability was taken into consideration with the use of the formula: Actual effect of test compound=measured effect−(effect on cell viability×measured effect)

[8] = test system: human umbilical vein smooth muscle cells (HUVSMC); assay: Proliferation of human umbilical vein smooth muscle cells (MTT); assay type: cell-based; conditions: 10 μM; 10% FCS, 5 days; FIG. 8
Procedure: The effect of test compounds on human umbilical vein smooth muscle cells (HUVSMC) was examined. Cells were seeded into 96 well plates at a low seeding rate of 1.6×10^3 cells per well, and allowed to attach for 24 hours. The cells were then washed twice with medium without FCS and incubated in medium without FCS for 20 hours to serum starve them. Analogue was prepared in medium without FCS at 20 μM and added to the plates and incubated for one hour. Final analogue concentration was therefore 10 μM. The cells were then stimulated by adding medium +20% FCS, to give a final FCS concentration of 10%. The cells were incubated until the control cells i.e. those with FCS and no compound, were just confluent (5 days). An MTT assay was performed, and difference in absorbance in analogue treated cells from the control was calculated using the formula: test/control*100−100. Results
The effect of test compounds on human umbilical vein smooth muscle cells (HUVSMC), was examined. Cells, tissue explants from a neonate (HRI—passage 2), were seeded into 96 well plates at 1×10^3 cells per well, and allowed to attach for 24 hours. They were then washed twice and incubated in medium without foetal calf serum (FCS) for 24-48 hours to serum-starve them. Test compounds were prepared in medium without FCS and added to the plates and incubated for one hour. Medium with FCS was added to give a final concentration of 10% and the plates incubated for 4-5 days until the controls were just confluent.

[9] = target: T1, GAL4-PPARγ fusion protein (Homo sapiens, UniProt P37231); assay: PPARγ activity in transfected HEK293 cells (beta-lactamase reporter); assay type: cell-based; conditions: FIG. 13: 1 μM
T1 construct: host or cells: HEK293 (human embryonic kidney), stably transfected
Procedure: Human HEK293 cells, stably transfected with the PPARγ ligand binding domain fused with the DNA binding domain of the GAL4 protein (GAL4-PPARγ fusion protein), produce beta-lactamase when incubated with PPARγ ligands. Transfected human kidney embryonic cells (Invitrogen Inc., Carlsbad, Calif.) were seeded onto matrigel in 96-well plates and allowed to attach overnight. The following day, vehicle alone (DMSO) or test compound at 1, 5 and 10 μM was added at varying concentrations to cells and incubated for 16-18 hours. Cells were then loaded with a FRET-based fluorescent substrate to assess beta-lactamase activity. Cells were protected from light, and incubated at room temperature for 2 h. Plates were read on a fluorescence plate reader with an excitation wavelength of 409 nm and emission wavelengths of 460 nm and 530 nm. Results were expressed as a ratio of these two wavelengths after the background (cell-free control wells) had been subtracted. PPARγ activity was thus determined by measuring beta-lactamase activity as assessed by a fluorescent product to substrate ratio.

[10] = test system: cancer cell lines; assay: Anti-cancer activity, cancer cell lines tested as a group (MTT); assay type: cell-based; conditions: CP70, HPAC and MM200
[11] = test system: PGE2 synthesis in RAW 264.7 murine macrophages; assay: LPS-induced PGE2 synthesis in RAW 264.7 murine macrophages; assay type: cell-based, mouse; conditions: 10 μM; relative to vehicle alone; FIG. 3
Procedure: (§3) The mouse macrophage cell line RAW 264.7 was cultured in DMEM supplemented with foetal calf serum (FCS), […] glutamine and 50 U/ml penicillin/streptomycin. Cells were treated with either test compound (in 0.025% DMSO) or vehicle alone, and added one hour before 50 ng/ml LPS. After incubation for 24 h, culture media was collected for PGE2 or TXB2 measurement by ELISA (Cayman Chemical), and TNFα measurement using an ELISA (Becton Dickinson). Test compounds were examined a concentration of 10 μM. […] Consequently, to assess the effect of test compounds on various analytes, cell viability was taken into consideration with the use of the formula: Actual effect of test compound=measured effect−(effect on cell viability×measured effect)

[12] = test system: TXB2 synthesis in RAW 264.7 murine macrophages; assay: LPS-induced TXB2 synthesis in RAW 264.7 murine macrophages; assay type: cell-based, mouse; conditions: 10 μM; relative to vehicle alone; FIG. 4
Procedure: as §3

T1 sequence (P37231 238-503 limits assumed): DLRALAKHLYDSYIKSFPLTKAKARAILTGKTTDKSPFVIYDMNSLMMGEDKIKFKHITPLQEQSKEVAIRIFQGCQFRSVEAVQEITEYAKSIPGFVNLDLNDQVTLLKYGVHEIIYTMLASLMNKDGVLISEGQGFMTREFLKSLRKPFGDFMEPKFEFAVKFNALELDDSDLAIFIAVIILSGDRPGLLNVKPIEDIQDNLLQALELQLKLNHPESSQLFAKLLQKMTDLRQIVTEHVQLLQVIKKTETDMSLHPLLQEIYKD
T1 sequence (P04386 1-147 partner limits assumed): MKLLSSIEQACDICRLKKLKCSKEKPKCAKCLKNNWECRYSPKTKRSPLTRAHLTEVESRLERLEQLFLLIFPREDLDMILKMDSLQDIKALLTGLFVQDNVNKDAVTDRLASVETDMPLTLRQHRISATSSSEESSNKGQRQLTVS

Row | EC50 [1] | IC50 [2] | IC50 [4] | IC50 [6] | PPARγ activation, increase in beta-lactamase activity over media only control [9] | SMILES | IC50 [3] | toxicity to the MM200 melanoma cell line [4] | IC50 [5] | mean change of LPS-induced NO synthesis [7] | effect on proliferation of HUVSMCs induced by FCS [8] | activity against CP70, HPAC and MM200 cell lines [10] | mean change of LPS-induced PGE2 synthesis [11] | mean change of LPS-induced TXB2 synthesis [12]
1 | 20 µM | 30.7 ± 22 µM | 8.9 ± 0.1 µM | 32.2 µM |  | CCCN1COc2cc3c(cc2C1)C=C(c1ccc(O)cc1)CO3 [Compound 3, 4-(3-Propyl-2,3,4,8-tetrahydrochromeno[6,7-e][1,3]oxazin-7-yl)phenol] | 56.2 ± 12.6 µM | selectively toxic | 4.8 µM | greatest inhibition |  |  |  | 
2 | 22.5 µM | 9.98 ± 0.5 µM | 36.3 ± 6 µM | 48.8 µM | PPARγ agonist activity | Oc1ccc(C2=Cc3cc4c(cc3OC2)OCN(c2ccccc2)C4)cc1 [Compound 7, 4-(3-Phenyl-2,3,4,8-tetrahydrochromeno[6,7-e][1,3]oxazin-7-yl)phenol] | 48.8 ± 12.2 µM |  | 56.6 µM | greatest inhibition | significantly inhibited the proliferation |  |  | 
3 | 24 µM | 8.6 µM | 14.6 µM | 6.83 µM |  | COc1ccc(C2=C(c3ccc(O)cc3)COc3cc4c(cc32)CN(Cc2ccc(Cl)cc2)CO4)cc1 [Compound 24, 4-(3-(4-Chlorobenzyl)-6-(4-methoxyphenyl)-2,3,4,8-tetrahydrochromeno[6,7-e][1,3]oxazin-7-yl)-phenol] |  |  |  | greatest inhibition |  | active | greatest inhibition | greatest inhibition
